Reference: ChEMBL document CHEMBL5505958, “Optimization of sequence and chiral content enhances therapeutic potential of tilapia piscidin peptides” (Eur J Med Chem, 2024)
In brackets after ≈: the same amount, converted by molar mass. Activity calls are given as the source filed them. The rule behind the calls is not given here.

Assays:
[1] = tested on: Lipopolysaccharide (LPS); assay: Displacement of BODIPY-TR-cadaverine from Klebsiella pneumoniae BAA 2473 lipopolysaccharide (LPS) assessed as increase in fluorescence intensity at 3.125 uM by fluorescence spectrophotometric analysis; format: subcellular
[2] = tested on: Salmonella typhimurium; assay: Antibacterial activity against Salmonella typhimurium DT104 assessed as inhibition of bacterial growth incubated for 16 to 20 hrs in presence of human serum; format: functional, Salmonella enterica subsp. enterica serovar Typhimurium; conditions: Salmonella enterica, time 16-20 hrs
[3] = tested on: Klebsiella pneumoniae; assay: Bactericidal activity against Klebsiella pneumoniae TL 297 assessed as inhibition of bacterial growth incubated for 16 to 20 hrs in presence of human serum; format: functional; conditions: time 16-20 hrs
[4] = tested on: Klebsiella pneumoniae; assay: Antibacterial activity against Klebsiella pneumoniae BAA 2473 assessed as inhibition of bacterial growth incubated for 16 to 20 hrs; format: functional; conditions: time 16-20 hrs
[5] = tested on: Enterococcus faecium; assay: Antibacterial activity against Enterococcus faecium 10067 assessed as inhibition of bacterial growth incubated for 16 to 20 hrs in presence of human serum; format: functional; conditions: time 16-20 hrs
[6] = tested on: Salmonella enterica; assay: Bactericidal activity against Salmonella enterica 15455 assessed as inhibition of bacterial growth incubated for 16 to 20 hrs; format: functional; conditions: time 16-20 hrs
[7] = tested on: Klebsiella oxytoca; assay: Bactericidal activity against Klebsiella oxytoca 13985 assessed as inhibition of bacterial growth incubated for 16 to 20 hrs in presence of human serum; format: functional; conditions: time 16-20 hrs
[8] = tested on: Klebsiella pneumoniae; assay: Antibacterial activity against Klebsiella pneumoniae BAA 2473 assessed as inhibition of bacterial growth in presence of 1 microg/ml of pepsin (reference value: 1.56 to 3.13 microM); format: functional
[9] = tested on: Klebsiella pneumoniae; assay: Antibacterial activity against Klebsiella pneumoniae BAA 2473 assessed as inhibition of bacterial growth in presence of 0.1 microg/ml of proteinase K (reference value: 1.56 to 3.13 microM); format: functional
[10] = tested on: Escherichia coli; assay: Antibacterial activity against Escherichia coli 10675 assessed as inhibition of bacterial growth incubated for 16 to 20 hrs in presence of human serum; format: functional; conditions: time 16-20 hrs
[11] = tested on: Rhizopus arrhizus; assay: Antifungal activity against Rhizopus oryzae 34550 assessed as inhibition of fungal growth incubated for 16 to 20 hrs in presence of human serum; format: functional; conditions: time 16-20 hrs
[12] = tested on: Klebsiella pneumoniae; assay: Antibacterial activity against Klebsiella pneumoniae TL 297 assessed as inhibition of bacterial growth incubated for 16 to 20 hrs in presence of human serum; format: functional; conditions: time 16-20 hrs
[13] = tested on: Salmonella enterica; assay: Bactericidal activity against Salmonella enterica 15455 assessed as inhibition of bacterial growth incubated for 16 to 20 hrs in presence of human serum; format: functional; conditions: time 16-20 hrs
[14] = tested on: Klebsiella pneumoniae; assay: Antibacterial activity against Klebsiella pneumoniae BAA 2473 assessed as inhibition of bacterial growth in presence of 1 microg/ml of proteinase K (reference value: 1.56 to 3.13 microM); format: functional
[15] = tested on: Klebsiella pneumoniae; assay: Antibacterial activity against Klebsiella pneumoniae BAA 2473 assessed as inhibition of bacterial growth in presence of 0.1 microg/ml of pepsin (reference value: 1.56 to 3.13 microM); format: functional
[16] = tested on: Klebsiella pneumoniae; assay: Bactericidal activity against Klebsiella pneumoniae BAA 2473 assessed as inhibition of bacterial growth in presence of 1 microg/ml of chymotrypsin (reference value: 1.56 to 3.13 microM); format: functional
[17] = tested on: Escherichia coli; assay: Bactericidal activity against Escherichia coli 10675 assessed as inhibition of bacterial growth incubated for 16 to 20 hrs; format: functional; conditions: time 16-20 hrs
[18] = tested on: Vibrio vulnificus; assay: Bactericidal activity against Vibrio vulnificus 204 assessed as inhibition of bacterial growth incubated for 16 to 20 hrs; format: functional; conditions: time 16-20 hrs
[19] = tested on: Klebsiella pneumoniae; assay: Bactericidal activity against Klebsiella pneumoniae BAA 2473 assessed as inhibition of bacterial growth in presence of 10 microg/ml of pepsin (reference value: 1.56 to 3.13 microM); format: functional
[20] = tested on: Vibrio vulnificus; assay: Bactericidal activity against Vibrio vulnificus 204 assessed as inhibition of bacterial growth incubated for 16 to 20 hrs in presence of human serum; format: functional; conditions: time 16-20 hrs
[21] = tested on: Cell membrane; assay: Induction of outer cell membrane permeabilization in Klebsiella pneumoniae BAA 2473 assessed as increase in fluorescence intensity by NPN uptake assay; format: cell membranes
[22] = tested on: Vibrio vulnificus; assay: Antibacterial activity against Vibrio vulnificus 204 assessed as inhibition of bacterial growth incubated for 16 to 20 hrs; format: functional; conditions: time 16-20 hrs
[23] = tested on: Klebsiella oxytoca; assay: Antibacterial activity against Klebsiella oxytoca 13985 assessed as inhibition of bacterial growth incubated for 16 to 20 hrs in presence of human serum; format: functional; conditions: time 16-20 hrs
[24] = tested on: Rhizopus arrhizus; assay: Antifungal activity against Rhizopus oryzae 34550 assessed as inhibition of fungal growth incubated for 16 to 20 hrs; format: functional; conditions: time 16-20 hrs
[25] = tested on: Klebsiella pneumoniae; assay: Antibacterial activity against Klebsiella pneumoniae 10692 assessed as inhibition of bacterial growth incubated for 16 to 20 hrs; format: functional; conditions: time 16-20 hrs
[26] = tested on: Rhizopus arrhizus; assay: Fungicidal activity against Rhizopus oryzae 34550 assessed as inhibition of fungal growth incubated for 72 hrs; format: functional
[27] = tested on: Klebsiella pneumoniae; assay: Bactericidal activity against Klebsiella pneumoniae BAA 2473 assessed as inhibition of bacterial growth in presence of 1 microg/ml of proteinase K (reference value: 1.56 to 3.13 microM); format: functional
[28] = tested on: Klebsiella pneumoniae; assay: Bactericidal activity against Klebsiella pneumoniae BAA 2473 assessed as inhibition of bacterial growth in presence of 1 microg/ml of trypsin (reference value: 1.56 to 3.13 microM); format: functional
[29] = tested on: Klebsiella pneumoniae; assay: Antibacterial activity against Klebsiella pneumoniae BAA 2473 assessed as inhibition of bacterial growth in presence of 0.1 microg/ml of trypsin (reference value: 1.56 to 3.13 microM); format: functional
[30] = tested on: Klebsiella pneumoniae; assay: Bactericidal activity against Klebsiella pneumoniae BAA 2473 assessed as inhibition of bacterial growth in presence of 0.1 microg/ml of trypsin (reference value: 1.56 to 3.13 microM); format: functional
[31] = tested on: Salmonella enterica; assay: Antibacterial activity against Salmonella enterica 15455 assessed as inhibition of bacterial growth incubated for 16 to 20 hrs; format: functional; conditions: time 16-20 hrs
[32] = tested on: Salmonella typhimurium; assay: Antibacterial activity against Salmonella typhimurium DT104 assessed as inhibition of bacterial growth incubated for 16 to 20 hrs; format: functional, Salmonella enterica subsp. enterica serovar Typhimurium; conditions: Salmonella enterica, time 16-20 hrs
[33] = tested on: Enterococcus faecium; assay: Bactericidal activity against Enterococcus faecium 10067 assessed as inhibition of bacterial growth incubated for 16 to 20 hrs in presence of human serum; format: functional; conditions: time 16-20 hrs
[34] = tested on: Klebsiella pneumoniae; assay: Antibacterial activity against Klebsiella pneumoniae BAA 2473 assessed as inhibition of bacterial growth in presence of 10 microg/ml of pepsin (reference value: 1.56 to 3.13 microM); format: functional
[35] = tested on: Klebsiella pneumoniae; assay: Bactericidal activity against Klebsiella pneumoniae BAA 2473 assessed as inhibition of bacterial growth incubated for 16 to 20 hrs; format: functional; conditions: time 16-20 hrs
[36] = tested on: Klebsiella pneumoniae; assay: Bactericidal activity against Klebsiella pneumoniae BAA 2473 assessed as inhibition of bacterial growth in presence of 0.1 microg/ml of proteinase K (reference value: 1.56 to 3.13 microM); format: functional
[37] = tested on: Acinetobacter baumannii; assay: Antibacterial activity against Acinetobacter baumannii 10591 assessed as inhibition of bacterial growth incubated for 16 to 20 hrs in presence of human serum; format: functional; conditions: time 16-20 hrs
[38] = tested on: Klebsiella pneumoniae; assay: Antibacterial activity against Klebsiella pneumoniae BAA 2473 assessed as inhibition of bacterial growth in presence of 10 microg/ml of chymotrypsin (reference value: 1.56 to 3.13 microM); format: functional
[39] = tested on: Klebsiella pneumoniae; assay: Bactericidal activity against Klebsiella pneumoniae 10692 assessed as inhibition of bacterial growth incubated for 16 to 20 hrs; format: functional; conditions: time 16-20 hrs
[40] = tested on: Klebsiella pneumoniae; assay: Antibacterial activity against Klebsiella pneumoniae BAA 2473 assessed as inhibition of bacterial growth in presence of 0.1 microg/ml of chymotrypsin (reference value: 1.56 to 3.13 microM); format: functional

Compound	Activity [1] [%]	MIC [2] [µM]	MBC [3] [µM]	MIC [4] [µM]	MIC [5] [µM]	MBC [6] [µM]	MBC [7] [µM]	MIC [8] [µM]	MIC [9] [µM]	MIC [10] [µM]	MIC [11] [µM]	MIC [12] [µM]	MBC [13] [µM]	MIC [14] [µM]	MIC [15] [µM]	MBC [16] [µM]	MBC [17] [µM]	MBC [18] [µM]	MBC [19] [µM]	MBC [20] [µM]	other results
H-FIHHIIGGLFSAGKAIHRLIRRRRR-OH	95	> 100	> 100	1.56	100	< 1.56	> 100	> 100	1.56	> 100	> 25	> 100	100	> 100	1.56	> 100	6.25	3.13	> 100	> 100	Activity [21]: Active; MIC [22]: 3.13 µM; MIC [23]: > 100 µM; MIC [24]: 1.56 µM; MIC [25]: 0.78 µM; MFC [26]: 1.56 µM; MBC [27]: > 100 µM; MBC [28]: > 100 µM; MIC [29]: 1.56 µM; MBC [30]: 3.13 µM; MIC [31]: 3.13 µM; MIC [32]: 6.25 µM; MBC [33]: 100 µM; MIC [34]: > 100 µM; MBC [35]: 3.13 µM; MBC [36]: 1.56 µM; MIC [37]: 100 µM; MIC [38]: > 100 µM; MBC [39]: 0.78 µM; MIC [40]: 1.56 µM
CC(C)C[C@H](NC(=O)[C@H](CCCCN)NC(=O)[C@@H](CCCCN)NC(=O)[C@H](CC(C)C)NC(=O)[C@@H](N)Cc1ccccc1)C(=O)N[C@H](CC(C)C)C(=O)N[C@@H](CCCCN)C(=O)N[C@@H](C)C(=O)N[C@H](CC(C)C)C(=O)N[C@@H](Cc1ccccc1)C(=O)N[C@@H](CO)C(=O)N[C@H](C)C(=O)N1CCC[C@H]1C(=O)N[C@@H](CCCCN)C(=O)N[C@H](C)C(=O)N[C@@H](CC(C)C)C(=O)N[C@@H](CCCCN)C(=O)N[C@H](CCCNC(=N)N)C(=O)N[C@@H](CC(C)C)C(=O)N[C@@H](CC(C)C)C(=O)N[C@H](CCCNC(=N)N)C(=O)N[C@@H](CCCNC(=N)N)C(=O)N[C@@H](CCCNC(=N)N)C(=O)N[C@H](CCCNC(=N)N)C(=O)N[C@@H](CCCNC(=N)N)C(=O)O	100	3.13	1.56	0.78 (≈ 2.4 µg/mL)	100	6.25 (≈ 19.2 µg/mL)	3.13	0.78	0.78	0.78	3.13	1.56	0.78	0.78	0.78	0.78	3.13 (≈ 9.64 µg/mL)	12.5 (≈ 38.5 µg/mL)	0.78	12.5	Activity [21]: Active; MIC [22]: 12.5 µM (≈ 38.5 µg/mL); MIC [23]: 3.13 µM; MIC [24]: 0.78 µM (≈ 2.4 µg/mL); MIC [25]: 3.13 µM (≈ 9.64 µg/mL); MFC [26]: 0.78 µM (≈ 2.4 µg/mL); MBC [27]: 1.56 µM; MBC [28]: 1.56 µM; MIC [29]: 0.78 µM; MBC [30]: 0.78 µM; MIC [31]: 3.13 µM (≈ 9.64 µg/mL); MIC [32]: 6.25 µM (≈ 19.2 µg/mL); MBC [33]: 100 µM; MIC [34]: 0.78 µM; MBC [35]: 25 µM (≈ 77 µg/mL); MBC [36]: 0.78 µM; MIC [37]: 3.13 µM; MIC [38]: 0.78 µM; MBC [39]: 3.13 µM (≈ 9.64 µg/mL); MIC [40]: 0.78 µM
